From ChEMBL document CHEMBL1201862, “PubChem BioAssay data set” (2004)
Structures can show the parent of a compound that is named as a salt. Activity calls are given as the source filed them.

What was measured:
Caspase-3 = molecular target: T1, Caspase-3 (Homo sapiens, UniProt P42574); experiment: caspase-3 enzyme inhibitors, selectivity check, dose response, selectivity assay for caspase-6 allosteric inhibitor project, biochemical, fluorescence, cherry-picked samples (AID 743291)
T1 sequence (P42574 whole entry): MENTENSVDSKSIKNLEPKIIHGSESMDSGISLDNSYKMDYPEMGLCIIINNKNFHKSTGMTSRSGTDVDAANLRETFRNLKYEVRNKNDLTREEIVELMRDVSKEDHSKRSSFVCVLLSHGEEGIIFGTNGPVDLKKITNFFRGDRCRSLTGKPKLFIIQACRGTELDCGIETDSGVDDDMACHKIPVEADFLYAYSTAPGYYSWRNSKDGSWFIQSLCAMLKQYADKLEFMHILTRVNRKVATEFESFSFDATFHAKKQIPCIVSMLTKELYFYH

Caspase-6 = molecular target: T2, Caspase-6 (Homo sapiens, UniProt P55212); experiment: human caspase-6 inhibitors, dose response, biochemical, VEID-R110 fluorescence, cherry-pick (AID 720632)
T2 sequence (P55212 whole entry): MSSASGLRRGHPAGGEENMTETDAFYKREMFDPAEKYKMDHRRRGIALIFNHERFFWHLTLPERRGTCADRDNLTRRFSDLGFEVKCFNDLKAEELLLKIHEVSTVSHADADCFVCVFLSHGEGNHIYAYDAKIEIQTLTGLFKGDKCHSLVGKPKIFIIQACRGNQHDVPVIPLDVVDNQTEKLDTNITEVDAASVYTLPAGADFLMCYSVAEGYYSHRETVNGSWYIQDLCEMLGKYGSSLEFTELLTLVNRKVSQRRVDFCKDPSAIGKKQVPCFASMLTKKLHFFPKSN

Caspase-9 = molecular target: T3, Caspase-9 (Homo sapiens, UniProt P55211); experiment: caspase-9 enzyme inhibition, dose response, selectivity assay for caspase-6 inhibitor project, biochemical, fluorescence, plate reader, cherry-picked samples (AID 743293)
T3 sequence (P55211 whole entry): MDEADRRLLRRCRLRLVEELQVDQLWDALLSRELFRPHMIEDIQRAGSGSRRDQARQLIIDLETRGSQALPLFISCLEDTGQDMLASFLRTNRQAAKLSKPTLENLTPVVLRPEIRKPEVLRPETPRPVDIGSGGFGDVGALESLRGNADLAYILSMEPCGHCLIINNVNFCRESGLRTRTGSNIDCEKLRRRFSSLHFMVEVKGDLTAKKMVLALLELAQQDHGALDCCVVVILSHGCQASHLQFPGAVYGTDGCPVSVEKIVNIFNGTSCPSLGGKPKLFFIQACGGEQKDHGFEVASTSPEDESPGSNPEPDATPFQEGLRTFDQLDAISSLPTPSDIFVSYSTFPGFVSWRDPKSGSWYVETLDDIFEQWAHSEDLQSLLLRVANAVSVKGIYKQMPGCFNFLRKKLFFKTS

[1] = molecular target: T4, Sentrin-specific protease 8 (Homo sapiens, UniProt Q96LD8); type: functional
T4 sequence (Q96LD8 whole entry): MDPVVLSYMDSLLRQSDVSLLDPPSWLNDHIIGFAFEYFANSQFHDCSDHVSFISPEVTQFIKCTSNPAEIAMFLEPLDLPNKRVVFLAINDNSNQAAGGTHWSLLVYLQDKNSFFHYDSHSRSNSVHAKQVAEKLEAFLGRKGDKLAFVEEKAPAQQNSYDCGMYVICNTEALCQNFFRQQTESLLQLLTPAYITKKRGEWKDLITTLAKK

[2] = molecular target: T5, Histone-lysine N-methyltransferase NSD2 (Homo sapiens, UniProt O96028); type: biochemical
T5 sequence (O96028 whole entry): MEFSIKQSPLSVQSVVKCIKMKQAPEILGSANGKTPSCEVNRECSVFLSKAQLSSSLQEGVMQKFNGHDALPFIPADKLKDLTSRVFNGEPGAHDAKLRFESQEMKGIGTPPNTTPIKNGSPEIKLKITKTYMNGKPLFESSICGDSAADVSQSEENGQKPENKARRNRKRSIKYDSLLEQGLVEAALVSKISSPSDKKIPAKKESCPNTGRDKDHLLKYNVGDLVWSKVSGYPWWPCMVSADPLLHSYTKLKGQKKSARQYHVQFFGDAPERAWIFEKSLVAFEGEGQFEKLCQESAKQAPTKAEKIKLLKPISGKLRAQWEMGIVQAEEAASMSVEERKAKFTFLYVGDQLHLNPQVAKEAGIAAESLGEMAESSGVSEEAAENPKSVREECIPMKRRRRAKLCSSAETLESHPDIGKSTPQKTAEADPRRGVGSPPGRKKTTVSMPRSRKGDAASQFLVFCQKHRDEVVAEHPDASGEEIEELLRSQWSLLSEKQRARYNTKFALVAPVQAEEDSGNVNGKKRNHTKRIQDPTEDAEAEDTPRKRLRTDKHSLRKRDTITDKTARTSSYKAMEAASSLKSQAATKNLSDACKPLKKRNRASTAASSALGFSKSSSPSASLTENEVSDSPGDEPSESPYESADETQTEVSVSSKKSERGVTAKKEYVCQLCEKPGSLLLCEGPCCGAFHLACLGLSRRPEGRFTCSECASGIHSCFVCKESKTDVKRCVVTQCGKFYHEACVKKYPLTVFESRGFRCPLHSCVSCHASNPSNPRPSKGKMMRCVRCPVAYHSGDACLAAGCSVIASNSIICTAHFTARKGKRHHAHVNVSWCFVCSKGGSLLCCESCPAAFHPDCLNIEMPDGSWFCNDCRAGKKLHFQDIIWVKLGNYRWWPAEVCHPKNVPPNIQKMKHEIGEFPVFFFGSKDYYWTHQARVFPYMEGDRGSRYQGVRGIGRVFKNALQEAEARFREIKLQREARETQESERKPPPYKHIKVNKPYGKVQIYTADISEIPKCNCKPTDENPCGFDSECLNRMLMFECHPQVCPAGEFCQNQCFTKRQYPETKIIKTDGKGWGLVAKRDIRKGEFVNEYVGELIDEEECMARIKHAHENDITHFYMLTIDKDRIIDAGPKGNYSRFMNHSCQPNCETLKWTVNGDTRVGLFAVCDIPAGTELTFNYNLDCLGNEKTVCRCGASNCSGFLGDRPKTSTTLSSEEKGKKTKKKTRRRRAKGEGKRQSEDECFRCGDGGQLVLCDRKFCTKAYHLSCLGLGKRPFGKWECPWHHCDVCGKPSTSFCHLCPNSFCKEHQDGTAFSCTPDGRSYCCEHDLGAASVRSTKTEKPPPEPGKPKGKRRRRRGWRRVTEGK

Caspase-7 = Caspase-7 (Homo sapiens, UniProt P55210); experiment: human caspase-7 inhibitors, dose response, selectivity assay for caspase-6 inhibitor project, biochemical, DEVD-R110 fluorescence, cherry-pick (AID 743295)
Chain of Caspase-7 (P55210 24-198 limits assumed): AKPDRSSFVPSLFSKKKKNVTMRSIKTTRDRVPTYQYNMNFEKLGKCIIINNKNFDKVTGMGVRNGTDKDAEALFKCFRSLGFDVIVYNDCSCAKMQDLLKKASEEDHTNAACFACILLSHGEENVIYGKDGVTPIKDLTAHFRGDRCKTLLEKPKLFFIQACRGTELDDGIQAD
Chain of Caspase-7 (P55210 207-303 limits assumed): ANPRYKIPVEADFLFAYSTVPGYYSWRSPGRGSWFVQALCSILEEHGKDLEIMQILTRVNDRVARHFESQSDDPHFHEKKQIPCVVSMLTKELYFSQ

[3] = molecular target: T4, Sentrin-specific protease 8; type: functional; remark: listed apart in the source
Caspase-8 = Caspase-8 (Homo sapiens, UniProt Q14790); experiment: caspase-8 inhibition counter-screen, dose response, selectivity assay for caspase-6 inhibitor project, biochemical, Z-IETD-R110 fluorescence, cherry-picked samples (AID 743294)
Chain of Caspase-8 (Q14790 217-374 limits assumed): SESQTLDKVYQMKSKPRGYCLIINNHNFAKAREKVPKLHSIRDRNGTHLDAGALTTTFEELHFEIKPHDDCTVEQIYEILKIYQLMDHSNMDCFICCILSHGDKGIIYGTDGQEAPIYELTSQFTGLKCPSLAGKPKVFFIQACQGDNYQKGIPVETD
Chain of Caspase-8 (Q14790 385-479 limits assumed): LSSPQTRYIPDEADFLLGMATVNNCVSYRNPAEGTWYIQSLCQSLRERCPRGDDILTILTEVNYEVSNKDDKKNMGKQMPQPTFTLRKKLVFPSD

[4] = HeLa 4N DNA content increase, dose response, cell-based, IC50 (AID 1117351); type: functional
[5] = HeLa 2N DNA content increase, dose response, cell-based, IC50 (AID 1117349); type: functional
[6] = NIH:OVCAR-3 ovarian cancer cell cytotoxicity, dose response, PAX8 inhibitor project, plate reader, dry powder samples (AID 743044); type: functional, cell-based
[7] = A2780 ovarian cancer cell cytotoxicity, dose response, cytotoxicity control, plate reader, dry powder samples (AID 743046); type: functional, cell-based
Paired box protein Pax-8 = Paired box protein Pax-8 (Homo sapiens, UniProt Q06710); experiment: inhibitors of PAX8-driven TPO luciferase reporter, dose response, RMG-I cells, cherry-pick (AID 687027); type: functional, cell-based;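 also: luciferase reporter driven by Pax8 target thyroperoxidase promoter measured by SteadyGlo luminescence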
Chain of Paired box protein Pax-8 (Q06710 whole entry): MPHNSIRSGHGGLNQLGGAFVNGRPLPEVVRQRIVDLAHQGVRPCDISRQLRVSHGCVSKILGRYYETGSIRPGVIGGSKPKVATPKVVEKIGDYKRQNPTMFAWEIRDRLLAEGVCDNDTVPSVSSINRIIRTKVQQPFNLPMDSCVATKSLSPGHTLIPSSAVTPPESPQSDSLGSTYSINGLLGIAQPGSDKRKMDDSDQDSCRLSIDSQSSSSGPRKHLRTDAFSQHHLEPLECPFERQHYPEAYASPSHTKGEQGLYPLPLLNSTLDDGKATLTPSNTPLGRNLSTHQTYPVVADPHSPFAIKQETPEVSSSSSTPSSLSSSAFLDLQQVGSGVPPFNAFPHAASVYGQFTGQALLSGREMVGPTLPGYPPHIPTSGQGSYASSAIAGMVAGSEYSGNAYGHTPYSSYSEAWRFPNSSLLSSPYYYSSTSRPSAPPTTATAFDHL

Galanin receptor type 3 = Galanin receptor type 3 (Homo sapiens, UniProt O60755); experiment: Fluorescence-based cell-based primary high throughput dose response assay to identify antagonists of the Galanin Receptor 3 (GalR3).; type: functional
Chain of Galanin receptor type 3 (O60755 whole entry): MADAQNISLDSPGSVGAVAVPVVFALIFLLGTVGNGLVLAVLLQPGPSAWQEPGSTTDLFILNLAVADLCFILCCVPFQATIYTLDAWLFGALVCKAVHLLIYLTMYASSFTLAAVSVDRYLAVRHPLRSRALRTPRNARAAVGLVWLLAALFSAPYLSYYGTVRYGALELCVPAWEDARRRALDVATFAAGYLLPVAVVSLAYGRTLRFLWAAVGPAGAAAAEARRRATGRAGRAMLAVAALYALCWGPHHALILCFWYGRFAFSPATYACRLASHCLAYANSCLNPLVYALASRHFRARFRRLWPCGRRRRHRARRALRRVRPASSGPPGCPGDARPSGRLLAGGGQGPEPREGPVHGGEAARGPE

[8] = molecular target: COUP transcription factor 2 (Homo sapiens, UniProt P24468); experiment: Luminescence-based cell-based high throughput dose response assay to identify inhibitors of COUP-TFII (NR2F2).; type: functional;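 also: HEK293 cells transiently cotransfected with COUP-TFII expression vector and reporter; luciferase reporter luminescence driven by COUP-TFII from the pX2-168 reporter plasmid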
Chain of COUP transcription factor 2 (P24468 whole entry): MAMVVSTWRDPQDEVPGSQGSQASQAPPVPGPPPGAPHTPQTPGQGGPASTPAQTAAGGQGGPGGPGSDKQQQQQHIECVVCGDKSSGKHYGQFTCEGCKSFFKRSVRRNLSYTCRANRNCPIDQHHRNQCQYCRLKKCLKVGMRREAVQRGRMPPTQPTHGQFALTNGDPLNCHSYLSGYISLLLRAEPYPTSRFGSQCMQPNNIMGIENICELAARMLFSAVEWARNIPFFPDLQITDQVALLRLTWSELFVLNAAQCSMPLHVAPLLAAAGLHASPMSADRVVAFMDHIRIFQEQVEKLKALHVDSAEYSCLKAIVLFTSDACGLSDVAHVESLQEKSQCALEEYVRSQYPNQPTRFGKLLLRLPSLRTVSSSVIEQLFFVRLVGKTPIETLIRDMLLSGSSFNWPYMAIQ

BJ [9] = experiment: cells; type: functional, cell-based; settings: Homo sapiens
[10] = cytotoxicity toward DRD oncogenic fibroblasts, dose response, cell-based, non-viral oncogenic, luminescence (AID 1934); type: functional; settings: Homo sapiens
cells = type: functional, cell-based; settings: HEK-CNG
BJ [11] = experiment: cytotoxicity toward BJ-TERT-LT-ST fibroblasts, dose response, cell-based, RAS-independent, luminescence (AID 1935); type: functional; settings: Homo sapiens;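 also: BJ fibroblasts immortalized with TERT plus LT and ST oncogenes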
BJ [12] = experiment: cytotoxicity toward BJ-TERT fibroblasts, dose response, cell-based, RAS-independent, luminescence (AID 1933); type: functional; settings: Homo sapiens
[13] = Luminescence Cell-Based Dose Retest to Confirm Inhibitors of Cancer Stem Cells. [Related pubchem assays (depositor defined):AID2717, AID2721]; type: functional; settings: Homo sapiens
[14] = inhibitors of PGC1a acetylation in cells, dose response, cell-based, cherry-picked samples (AID 720514); type: functional;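 also: potency may reflect raised or lowered acetylation signal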
[15] = A549 cell cytotoxicity, dose response, cytotoxicity control, plate reader, cherry-pick, antagonist series (AID 743412); type: functional, cell-based
[16] = microbe, parasite or virus in culture; type: functional; settings: Mycobacterium tuberculosis
[17] = HEK293 cell cytotoxicity, dose response, cytotoxicity control, plate reader, cherry-picked samples (AID 743446); type: functional, cell-based
INS1 = experiment: beta cell apoptosis inhibitors, cytokine rescue, dose response, luminescence, retest (AID 449756); type: functional, cell-based; settings: Rattus norvegicus;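 also: cell death triggered by IL-1 beta plus TNF-alpha plus IFN-gamma mixture; protective hits raise ATP signal compared with cytokine alone wells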
[18] = LGR2 antagonists, dose response, cell-based, HEK293, CRE-luciferase reporter, cherry pick, set 2 (AID 743343); type: functional;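 also: transfected cells were stimulated with diluted bursicon conditioned medium after compound addition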
[19] = MC4R antagonists, dose response, counter-screen for LGR2 antagonist project, cell-based, plate reader, cherry pick (AID 743444); type: functional;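 also: transfected HEK 293 cells stimulated with alpha-MSH peptide; potency of inhibitors of the alpha-MSH evoked signal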
[20] = HepG2 cell cytotoxicity, dose response, cytotoxicity control, plate reader, cherry-pick, antagonist series (AID 743416); type: functional, cell-based

Q: Which results are given for COc1cc(N(C(C)=O)c2ccc(O)c(C(=O)O)c2)c2ncccc2c1?
A: AC50 (Caspase-3): 13.8 µM (active); AC50 (Caspase-6): 3.48 µM (active); AC50 (Caspase-9): 45.4 µM (active); IC50 [1]: 7.7 µM (active); AC50 [2]: 6.27 µM (active); AC50 (Caspase-7): 20.1 µM (active); IC50 [3]: 9.87 µM (active); AC50 (Caspase-8): 49.5 µM (active)

Q: For CN1CC[C@H](c2c(O)cc(O)c3c(=O)cc(-c4ccccc4Cl)oc23)[C@H](O)C1 [ALVOCIDIB HYDROCHLORIDE], which IC50 [4] is on record?
A: Its IC50 is > 10 µM (inactive).

Q: What about the IC50 [5] of the same compound?
A: The IC50 was > 10 µM (inactive).

Q: What does the source list for C[C@@H]1CN([C@H](C)CO)C(=O)c2cc(NS(=O)(=O)c3ccc(Cl)cc3)ccc2O[C@@H](C)CCCCO[C@@H]1CN(C)Cc1ccc(Cl)c(Cl)c1?
A: AC50 [6]: 49.5 µM (active); AC50 [7]: 2.73 µM (active); AC50 (Paired box protein Pax-8): 11.7 µM (active)

Q: Which IC50 (Galanin receptor type 3) does the source give for COc1ccccc1N1C(C)=CC(=Cc2sc3ccccc3[n+]2C)C=C1C here?
A: Its IC50 is 0.128 µM (active).

Q: What about the IC50 [8] of the same compound?
A: The IC50 was 0.617 µM (active).

Q: What about the EC50 (BJ [9]) of the same compound?
A: Its EC50 is 2.54 µM (active).

Q: And the EC50 [10]?
A: The EC50 was 6.24 µM (active).

Q: What about the EC50 (cells) of the same compound?
A: The EC50 was > 29.9 µM (inactive).

Q: And the EC50 (BJ [11])?
A: The EC50 was 3.16 µM (inconclusive).

Q: What about the EC50 (BJ [12]) of the same compound?
A: The EC50 was 3.07 µM (inconclusive).

Q: For Cn1nnnc1Sc1ncnc2scc(-c3cc4ccccc4o3)c12, which AC50 [13] is on record?
A: The AC50 was 1.41 µM (active).

Q: And the AC50 [14]?
A: The AC50 was 4.29 µM (active).

Q: And the AC50 [15]?
A: Its AC50 is 8.38 µM (active).

Q: What about the CC50 [16] of the same compound?
A: Its CC50 is 7.67 µM (active).

Q: What about the AC50 [17] of the same compound?
A: Its AC50 is 7.82 µM (active).

Q: And the AC50 (INS1)?
A: Its AC50 is 6 µM (active).

Q: And the AC50 [18]?
A: Its AC50 is 4.7 µM (active).

Q: What about the AC50 (Paired box protein Pax-8) of the same compound?
A: The AC50 was 3.12 µM (active).

Q: What about the AC50 [19] of the same compound?
A: Its AC50 is 4.18 µM (active).

Q: What about the AC50 [20] of the same compound?
A: The AC50 was 7.37 µM (active).
